# From patent US20240216438A1, “COMPOSITION CONTAINING FUNCTION-REINFORCED STEM CELL FOR PREVENTION OR TREATMENT OF ATOPIC DERMATITIS” (SCM LIFESCIENCE CO., LTD., priority 2021, published 2024)
# Tested on: mesenchymal stem cells
# Assay: qRT-PCR of IDO and TSG6 expression in mesenchymal stem cells treated with priming candidates
# Type: cell-based
# Conditions: for expression of IDO and TSG6: compared to untreated control group 0, Table 1 groups, 24 hours; for lowest effective concentrations capable of inducing significantly increased expression of both TSG6 and IDO: single substance, 24 hours treatment, qRT-PCR
# Protocol: In a 37° C. and 5% CO2 incubator, mesenchymal stem cells in a storage state (LN2 tank storage) were thawed and cultured, and at this time, the cells were cultured in a medium (DMEM, alpha-MEM) containing 10% FBS or 4% hPL until proliferated to a cell confluence of about 80%. The cultured mesenchymal stem cells were seeded in a 100 mm dish, and treated with candidate substances for reinforcing the functions of the mesenchymal stem cells for 24 hours, and then the concentrations of primary candidate substances for reinforcing the functions were set.
# TNF-α and IFN-γIFN-α were selected as the primary candidate substances, and in order to confirm the lowest effective concentration capable of increasing the expression of TNFα-stimulated gene-6 (TSG6) and indoleamine 2,3-dioxygenase (IDO) to confirm the reinforced functions, the stem cells were treated with 5, 10, and 20 ng/ml of TNF-α, 5, 10, and 20 ng/ml of IFN-γ, and 10, 20, and 40 ng/ml of IFN-α, respectively, and changes in expression of TSG6 and IDO were confirmed.
# The IDO was known as an immunomodulatory factor that inhibited the proliferation of immune cells such as T cells by converting tryptophan, which was essential for T cell proliferation, into kynurenine, and the TSG6 was known as an anti-inflammatory regulator secreted by mesenchymal stem cells. After culturing the stem cells, total RNA was isolated using TRIzol (Invitrogen), and cDNA was synthesized from total RNA using PrimeScript™ RT reagent Kit with gDNA Eraser (TaKaRa), and qRT-PCR was performed. The results of TSG6 and IDO according to the concentration of each candidate substance were illustrated in FIGS. 1, 2 and 3.
# Through Example 1, candidate substances and concentration combinations thereof selected to search for more functionally reinforced compositions based on the candidate substances and the lowest effective concentrations confirmed to induce the reinforced functions of stem cells were set as shown in Table 1. Mesenchymal stem cells were treated with the candidate combinations described in Table 1 below for 24 hours, and the stem cells were cultured as in Example 1, and then total RNA was isolated using TRIzol (Invitrogen). Thereafter, qRT-PCR was performed by synthesizing cDNA from total RNA using the PrimeScript™ RT reagent Kit with gDNA Eraser (TaKaRa).
# Vitamins were known to improve the proliferative ability of stem cells and maintain the stemness of stem cells when added during a stem cell culture process. Accordingly, various vitamins were treated in the stem cell culture process, and experiments were performed to confirm whether or not vitamins could achieve anti-inflammatory and immune function reinforcing effects of stem cells. Specifically, the stem cells were treated with various types of vitamins shown in Table 2 according to the method described in Example 1, and the results of confirming changes in expression of IDO and TSG6 according to treatment with each candidate substance were illustrated in FIG. 5.
Substance,expression of IDO and TSG6,lowest effective concentrations capable of inducing significantly increased expression of both TSG6 and IDO
IFN-α,increased expression,20 ng/mL
TNF-α,increased expression,10 ng/mL
"IFN-γ: priming candidate substance; Table 1 group 2, 10 ng/ml",increased expression,10 ng/mL
